According to patent US20120010075A1 (priority 2009, published 2012):
Read-outs that look alike come from different tables or passages of the source.

Tests used:
Ustilago maydis = experiment: In vitro fungitoxicity of hydrazones with and without copper towards Ustilago maydis (Example 29, Table 4); type: cell-based; settings: 1 μg/mL, 48 h
Phytophthora infestans [1] = type: in vivo, Phytophthora infestans on tomato (Outdoor Girl)
Phytophthora infestans [2] = type: in vivo, Phytophthora infestans on tomato; settings: hydrazone 50 ppm + 50 μM CuCl2.2H2O, applied 24 h before inoculation, assessed 7 days after inoculation, tomato
[3] = hydrazone 200 μM + CuCl2 200 μM
[4] = hydrazone 200 μM + CuCl2 400 μM
[5] = hydrazone 200 μM + CuCl2 800 μM
[6] = hydrazone 200 μM + CuSO4 200 μM
[7] = hydrazone 200 μM + CuSO4 400 μM
[8] = hydrazone 200 μM + CuSO4 800 μM
[9] = hydrazone 400 μM + CuCl2 200 μM
[10] = hydrazone 400 μM + CuCl2 400 μM
[11] = hydrazone 400 μM + CuCl2 800 μM
[12] = hydrazone 400 μM + CuSO4 200 μM
[13] = hydrazone 400 μM + CuSO4 400 μM
[14] = hydrazone 400 μM + CuSO4 800 μM

O=C(N/N=C/c1cc(Cl)cc(Cl)c1O)c1ccccc1 [Example 16]
% Inhn. Plus copper Observed (Ustilago maydis; copper-plus medium (CuCl2, 10 μM)): 80.0% | inhibition of growth at 1 µg/mL (Ustilago maydis; Mycosarcoma maydis, copper-minus medium, read-out: % Inhn. Minus copper Observed): 0% | % Control of Tomato Late Blight (Phytophthora infestans [1]; hydrazone 10 μM + CuCl2 10 μM): 33.5% | % Control of Tomato Late Blight, predicted (in brackets, Colby) (Phytophthora infestans [1]; hydrazone 10 μM + CuCl2 10 μM): 3.1% | % Control of Tomato Late Blight (Phytophthora infestans [1]; hydrazone 10 μM + CuCl2 50 μM): 39.7% | % Control of Tomato Late Blight, predicted (in brackets, Colby) (Phytophthora infestans [1]; hydrazone 10 μM + CuCl2 50 μM): 9.9% | % Control of Tomato Late Blight (Phytophthora infestans [1]; hydrazone 10 μM + CuCl2 200 μM): 69.0% | % Control of Tomato Late Blight, predicted (in brackets, Colby) (Phytophthora infestans [1]; hydrazone 10 μM + CuCl2 200 μM): 39.2% | % Control of Tomato Late Blight (Phytophthora infestans [1]; hydrazone 10 μM + CuCl2 400 μM): 75.7% | % Control of Tomato Late Blight, predicted (in brackets, Colby) (Phytophthora infestans [1]; hydrazone 10 μM + CuCl2 400 μM): 56.6% | % Control of Tomato Late Blight (Phytophthora infestans [1]; hydrazone 10 μM + CuCl2 800 μM): 94.2% | % Control of Tomato Late Blight, predicted (in brackets, Colby) (Phytophthora infestans [1]; hydrazone 10 μM + CuCl2 800 μM): 70.7% | % Control of Tomato Late Blight (Phytophthora infestans [1]; hydrazone 10 μM + CuSO4 10 μM): 26.3% | % Control of Tomato Late Blight, predicted (in brackets, Colby) (Phytophthora infestans [1]; hydrazone 10 μM + CuSO4 10 μM): 3.1% | % Control of Tomato Late Blight (Phytophthora infestans [1]; hydrazone 10 μM + CuSO4 50 μM): 28.1% | % Control of Tomato Late Blight, predicted (in brackets, Colby) (Phytophthora infestans [1]; hydrazone 10 μM + CuSO4 50 μM): 6.2% | % Control of Tomato Late Blight (Phytophthora infestans [1]; hydrazone 10 μM + CuSO4 200 μM): 56.0% | % Control of Tomato Late Blight, predicted (in brackets, Colby) (Phytophthora infestans [1]; hydrazone 10 μM + CuSO4 200 μM): 50.4% | % Control of Tomato Late Blight (Phytophthora infestans [1]; hydrazone 10 μM + CuSO4 400 μM): 77.3% | % Control of Tomato Late Blight, predicted (in brackets, Colby) (Phytophthora infestans [1]; hydrazone 10 μM + CuSO4 400 μM): 76.4% | % Control of Tomato Late Blight (Phytophthora infestans [1]; hydrazone 10 μM + CuSO4 800 μM): 72.2% | % Control of Tomato Late Blight, predicted (in brackets, Colby) (Phytophthora infestans [1]; hydrazone 10 μM + CuSO4 800 μM): 83.1% | % Control of Tomato Late Blight (Phytophthora infestans [1]; hydrazone 10 μM alone, no copper): 1.5% | % Control of Tomato Late Blight (Phytophthora infestans [1]; hydrazone 50 μM + CuCl2 10 μM): 41.9% | % Control of Tomato Late Blight, predicted (in brackets, Colby) (Phytophthora infestans [1]; hydrazone 50 μM + CuCl2 10 μM): 12.8% | % Control of Tomato Late Blight (Phytophthora infestans [1]; hydrazone 50 μM + CuCl2 50 μM): 63.0% | % Control of Tomato Late Blight, predicted (in brackets, Colby) (Phytophthora infestans [1]; hydrazone 50 μM + CuCl2 50 μM): 18.8% | % Control of Tomato Late Blight (Phytophthora infestans [1]; hydrazone 50 μM + CuCl2 200 μM): 91.5% | % Control of Tomato Late Blight, predicted (in brackets, Colby) (Phytophthora infestans [1]; hydrazone 50 μM + CuCl2 200 μM): 45.2% | % Control of Tomato Late Blight (Phytophthora infestans [1]; hydrazone 50 μM + CuCl2 400 μM): 91.7% | % Control of Tomato Late Blight, predicted (in brackets, Colby) (Phytophthora infestans [1]; hydrazone 50 μM + CuCl2 400 μM): 60.9% | % Control of Tomato Late Blight (Phytophthora infestans [1]; hydrazone 50 μM + CuCl2 800 μM): 98.3% | % Control of Tomato Late Blight, predicted (in brackets, Colby) (Phytophthora infestans [1]; hydrazone 50 μM + CuCl2 800 μM): 73.6% | % Control of Tomato Late Blight (Phytophthora infestans [1]; hydrazone 50 μM + CuSO4 10 μM): 56.8% | % Control of Tomato Late Blight, predicted (in brackets, Colby) (Phytophthora infestans [1]; hydrazone 50 μM + CuSO4 10 μM): 12.8% | % Control of Tomato Late Blight (Phytophthora infestans [1]; hydrazone 50 μM + CuSO4 50 μM): 67.7% | % Control of Tomato Late Blight, predicted (in brackets, Colby) (Phytophthora infestans [1]; hydrazone 50 μM + CuSO4 50 μM): 15.5% | % Control of Tomato Late Blight (Phytophthora infestans [1]; hydrazone 50 μM + CuSO4 200 μM): 72.9% | % Control of Tomato Late Blight, predicted (in brackets, Colby) (Phytophthora infestans [1]; hydrazone 50 μM + CuSO4 200 μM): 55.4% | % Control of Tomato Late Blight (Phytophthora infestans [1]; hydrazone 50 μM + CuSO4 400 μM): 78.0% | % Control of Tomato Late Blight, predicted (in brackets, Colby) (Phytophthora infestans [1]; hydrazone 50 μM + CuSO4 400 μM): 78.8% | % Control of Tomato Late Blight (Phytophthora infestans [1]; hydrazone 50 μM + CuSO4 800 μM): 91.6% | % Control of Tomato Late Blight, predicted (in brackets, Colby) (Phytophthora infestans [1]; hydrazone 50 μM + CuSO4 800 μM): 84.8% | % Control of Tomato Late Blight (Phytophthora infestans [1]; hydrazone 50 μM alone, no copper): 11.3% | % Control of Tomato Late Blight (Phytophthora infestans [1]; hydrazone 200 μM + CuCl2 10 μM): 67.8% | % Control of Tomato Late Blight, predicted (in brackets, Colby) (Phytophthora infestans [1]; hydrazone 200 μM + CuCl2 10 μM): 22.7% | % Control of Tomato Late Blight (Phytophthora infestans [1]; hydrazone 200 μM + CuCl2 50 μM): 96.6% | % Control of Tomato Late Blight, predicted (in brackets, Colby) (Phytophthora infestans [1]; hydrazone 200 μM + CuCl2 50 μM): 28.1% | % Control of Tomato Late Blight (Phytophthora infestans [1]; [3]): 95.8% | % Control of Tomato Late Blight, predicted (in brackets, Colby) (Phytophthora infestans [1]; [3]): 51.5% | % Control of Tomato Late Blight (Phytophthora infestans [1]; [4]): 90.8% | % Control of Tomato Late Blight, predicted (in brackets, Colby) (Phytophthora infestans [1]; [4]): 65.4% | % Control of Tomato Late Blight (Phytophthora infestans [1]; [5]): 96.7% | % Control of Tomato Late Blight, predicted (in brackets, Colby) (Phytophthora infestans [1]; [5]): 76.6% | % Control of Tomato Late Blight (Phytophthora infestans [1]; hydrazone 200 μM + CuSO4 10 μM): 78.0% | % Control of Tomato Late Blight, predicted (in brackets, Colby) (Phytophthora infestans [1]; hydrazone 200 μM + CuSO4 10 μM): 22.7% | % Control of Tomato Late Blight (Phytophthora infestans [1]; hydrazone 200 μM + CuSO4 50 μM): 81.3% | % Control of Tomato Late Blight, predicted (in brackets, Colby) (Phytophthora infestans [1]; hydrazone 200 μM + CuSO4 50 μM): 25.1% | % Control of Tomato Late Blight (Phytophthora infestans [1]; [6]): 93.2% | % Control of Tomato Late Blight, predicted (in brackets, Colby) (Phytophthora infestans [1]; [6]): 60.4% | % Control of Tomato Late Blight (Phytophthora infestans [1]; [7]): 95.8% | % Control of Tomato Late Blight, predicted (in brackets, Colby) (Phytophthora infestans [1]; [7]): 81.2% | % Control of Tomato Late Blight (Phytophthora infestans [1]; [8]): 97.5% | % Control of Tomato Late Blight, predicted (in brackets, Colby) (Phytophthora infestans [1]; [8]): 86.5% | % Control of Tomato Late Blight (Phytophthora infestans [1]; hydrazone 200 μM alone, no copper): 21.4% | % Control of Tomato Late Blight (Phytophthora infestans [1]; hydrazone 400 μM + CuCl2 10 μM): 64.4% | % Control of Tomato Late Blight, predicted (in brackets, Colby) (Phytophthora infestans [1]; hydrazone 400 μM + CuCl2 10 μM): 26.9% | % Control of Tomato Late Blight (Phytophthora infestans [1]; hydrazone 400 μM + CuCl2 50 μM): 91.7% | % Control of Tomato Late Blight, predicted (in brackets, Colby) (Phytophthora infestans [1]; hydrazone 400 μM + CuCl2 50 μM): 32.0% | % Control of Tomato Late Blight (Phytophthora infestans [1]; [9]): 91.7% | % Control of Tomato Late Blight, predicted (in brackets, Colby) (Phytophthora infestans [1]; [9]): 54.1% | % Control of Tomato Late Blight (Phytophthora infestans [1]; [10]): 99.8% | % Control of Tomato Late Blight, predicted (in brackets, Colby) (Phytophthora infestans [1]; [10]): 67.3% | % Control of Tomato Late Blight (Phytophthora infestans [1]; [11]): 100.0% | % Control of Tomato Late Blight, predicted (in brackets, Colby) (Phytophthora infestans [1]; [11]): 77.9% | % Control of Tomato Late Blight (Phytophthora infestans [1]; hydrazone 400 μM + CuSO4 10 μM): 41.5% | % Control of Tomato Late Blight, predicted (in brackets, Colby) (Phytophthora infestans [1]; hydrazone 400 μM + CuSO4 10 μM): 26.9% | % Control of Tomato Late Blight (Phytophthora infestans [1]; hydrazone 400 μM + CuSO4 50 μM): 54.5% | % Control of Tomato Late Blight, predicted (in brackets, Colby) (Phytophthora infestans [1]; hydrazone 400 μM + CuSO4 50 μM): 29.2% | % Control of Tomato Late Blight (Phytophthora infestans [1]; [12]): 87.2% | % Control of Tomato Late Blight, predicted (in brackets, Colby) (Phytophthora infestans [1]; [12]): 62.6% | % Control of Tomato Late Blight (Phytophthora infestans [1]; [13]): 96.6% | % Control of Tomato Late Blight, predicted (in brackets, Colby) (Phytophthora infestans [1]; [13]): 82.2% | % Control of Tomato Late Blight (Phytophthora infestans [1]; [14]): 98.3% | % Control of Tomato Late Blight, predicted (in brackets, Colby) (Phytophthora infestans [1]; [14]): 87.3% | % Control of Tomato Late Blight (Phytophthora infestans [1]; hydrazone 400 μM alone, no copper): 25.7% | TLB % Control (Phytophthora infestans [2]): 94.0%
